Test results as given in US11708348B2, “Protease inhibitors for treatment of coronavirus infections” (The Scripps Research Institute, priority 2021, dated 2023).
Structures can show the parent of a compound that is named as a salt.

Test system: SARS-CoV-2 strain USA-WA1/2020
Assay: microbe, parasite or virus in culture
Format: cell-based
Settings: Severe acute respiratory syndrome coronavirus 2, HeLa-ACE2, 24 h, HeLa-ACE2 cells, SARS-CoV-2 infection, 24 h; class symbols; read-out: EC50, uM (Hela)

Row | Structure (SMILES) | EC50 [µM]
1 | Cc1c(F)cccc1NC(=O)C(=O)N[C@@H](CC(C)C)C(=O)N[C@@H](C[C@@H]1CCNC1=O)C(=O)COc1c(F)c(F)cc(F)c1F [Compound 89, N1-(3-fluoro-2-methylphenyl)-N2-((S)-4-methyl-1-oxo-1-(((S)-3-oxo-1-((S)-2-oxopyrrolidin-3-yl)-4-(2,3,5,6-tetrafluorophenoxy)butan-2-yl)amino)pentan-2-yl)oxalamide] | < 0.05
2 | Cc1ccccc1NC(=O)C(=O)N[C@@H](CC1CC1)C(=O)N[C@@H](C[C@@H]1CCNC1=O)C(=O)COc1c(F)c(F)cc(F)c1F [Compound 116, N1-((S)-3-cyclopropyl-1-oxo-1-(((S)-3-oxo-1-((S)-2-oxopyrrolidin-3-yl)-4-(2,3,5,6-tetrafluorophenoxy)butan-2-yl)amino)propan-2-yl)-N2-(o-tolyl)oxalamide] | < 0.05
3 | CC(C)(C)C[C@H](NC(=O)C(=O)Nc1ccccc1C(C)(C)C)C(=O)N[C@@H](C[C@@H]1CCNC1=O)C(=O)COC(F)(F)F [Compound 173, N1-(2-(tert-butyl)phenyl)-N2-((S)-4,4-dimethyl-1-oxo-1-(((S)-3-oxo-1-((S)-2-oxopyrrolidin-3-yl)-4-(trifluoromethoxy)butan-2-yl)amino)pentan-2-yl)oxalamide] | < 0.05
4 | O=C(N[C@@H](CC1CC1)C(=O)N[C@@H](C[C@@H]1CCNC1=O)C(=O)COC(F)(F)F)c1cc(-c2ccccc2)n[nH]1 [Compound 192, N-((S)-3-cyclopropyl-1-oxo-1-(((S)-3-oxo-1-((S)-2-oxopyrrolidin-3-yl)-4-(trifluoromethoxy)butan-2-yl)amino)propan-2-yl)-3-phenyl-1H-pyrazole-5-carboxamide] | 0.05 to 0.2
5 | CC(C)C[C@H](NC(=O)C(=O)Nc1ccccc1)C(=O)N[C@@H](C[C@@H]1CCNC1=O)C(=O)COC(F)(F)F [Compound 122, N1-((S)-4-methyl-1-oxo-1-(((S)-3-oxo-1-((S)-2-oxopyrrolidin-3-yl)-4-(trifluoromethoxy)butan-2-yl)amino)pentan-2-yl)-N2-phenyloxalamide] | < 0.05
6 | CC(C)C[C@@H](OC(=O)NC(C)(C)C)C(=O)N1CC2(CC2)C[C@H]1C(=O)N[C@@H](C[C@@H]1CCNC1=O)C(=O)COC(F)(F)F [Compound 328, (R)-4-methyl-1-oxo-1-((S)-6-(((S)-3-oxo-1-((S)-2-oxopyrrolidin-3-yl)-4-(trifluoromethoxy)butan-2-yl)carbamoyl)-5-azaspiro[2.4]heptan-5-yl)pentan-2-yl tert-butylcarbamate] | < 0.05
7 | CC(C)C[C@H](NC(=O)C(=O)Nc1ccccc1F)C(=O)N[C@H](Cc1cnc[nH]1)C(=O)COc1c(F)c(F)cc(F)c1F [Compound 136, Nl-((S)-1-(((R)-1-(1H-imidazol-5-yl)-3-oxo-4-(2,3,5,6-tetrafluorophenoxy)butan-2-yl)amino)-4-methyl-1-oxopentan-2-yl)-N2-(2-fluorophenyl)oxalamide] | 0.5 to 1
8 | CO[C@H](CC(C)C)C(=O)N1CC2(CC2)C[C@H]1C(=O)N[C@@H](C[C@@H]1CCNC1=O)C(=O)COC(F)(F)F [Compound 381, (S)-5-((R)-2-methoxy-4-methylpentanoyl)-N-((S)-3-oxo-1-((S)-2-oxopyrrolidin-3-yl)-4-(trifluoromethoxy)butan-2-yl)-5-azaspiro[2.4]heptane-6-carboxamide] | < 0.05
9 | CC(C)C[C@H](NC(=O)C(=O)Nc1ccccc1Cl)C(=O)N[C@@H](C[C@@H]1CCNC1=O)C(=O)COc1c(F)c(F)cc(F)c1F [Compound 46, N1-(2-chlorophenyl)-N2-((S)-4-methyl-1-oxo-1-(((S)-3-oxo-1-((S)-2-oxopyrrolidin-3-yl)-4-(2,3,5,6-tetrafluorophenoxy)butan-2-yl)amino)pentan-2-yl)oxalamide] | < 0.05

Same assay, conditions: Severe acute respiratory syndrome coronavirus 2, HeLa-ACE2, 24 h, HeLa-ACE2 cells, SARS-CoV-2 infection, 24 h; given as bound; read-out: EC50, uM (Hela)

Row | Structure (SMILES) | EC50 [µM]
10 | O=C1NCC[C@H]1C[C@H](NC(=O)[C@@H]1[C@H]2CCC[C@H]2CN1C(=O)c1noc2c1CNCC2)C(=O)COC(F)(F)F [Compound 556, (1S,3aR,6aS)-N-((S)-3-oxo-1-((S)-2-oxopyrrolidin-3-yl)-4-(trifluoromethoxy)butan-2-yl)-2-(4,5,6,7-tetrahydroisoxazolo[4,5-c]pyridine-3-carbonyl)octahydro-cyclopenta[c]pyrrole-1-carboxamide] | > 1

Same assay, conditions: Severe acute respiratory syndrome coronavirus 2, HeLa-ACE2, 24 h, HeLa-ACE2 cells, SARS-CoV-2 infection, 24 h; read-out: EC50, uM (Hela)

Row | Structure (SMILES) | EC50 [µM]
11 | O=C(Nc1cccc(OC(F)(F)F)c1F)C(=O)N1CC2(CC2)C[C@H]1C(=O)N[C@@H](C[C@@H]1CCNC1=O)C(=O)COC(F)(F)F [Compound 600, (S)-5-(2-((2-fluoro-3-(trifluoromethoxy)-phenyl)amino)-2-oxoacetyl)-N-((S)-3-oxo-1-((S)-2-oxopyrrolidin-3-yl)-4-(trifluoromethoxy)-butan-2-yl)-5-azaspiro[2.4]heptane-6-carboxamide] | < 0.05
12 | CC(C)(C)C[C@H](NC(=O)c1cc(C(F)F)on1)C(=O)N[C@@H](C[C@@H]1CCNC1=O)C(=O)COC(F)(F)F [Compound 532, 5-(difluoromethyl)-N-((S)-4,4-dimethyl-1-oxo-1-(((S)-3-oxo-1-((S)-2-oxopyrrolidin-3-yl)-4-(trifluoromethoxy)butan-2-yl)amino)pentan-2-yl)isoxazole-3-carboxamide] | < 0.05
13 | [2H]C([2H])(CCCC)C(=O)N1CC2(CC2)C[C@H]1C(=O)N[C@@H](C[C@@H]1CCNC1=O)C(=O)COC(F)(F)F [Compound 740, (S)-5-(hexanoyl-2,2-d2)-N-((S)-3-oxo-1-((S)-2-oxopyrrolidin-3-yl)-4-(trifluoromethoxy)butan-2-yl)-5-azaspiro[2.4]heptane-6-carboxamide] | < 0.05
14 | O=C1NCC[C@H]1C[C@H](NC(=O)[C@@H]1CC2(CC2)CN1C(=O)[C@H](O)c1ccccc1F)C(=O)COC(F)(F)F [Compound 410, (S)-5-((R)-2-(2-fluorophenyl)-2-hydroxyacetyl)-N-((S)-3-oxo-1-((S)-2-oxopyrrolidin-3-yl)-4-(trifluoromethoxy)butan-2-yl)-5-azaspiro[2.4]heptane-6-carboxamide] | 0.05 to 0.2
15 | Cn1ccc(NC(=O)C(=O)N2C[C@@H]3CCC[C@@H]3[C@H]2C(=O)N[C@@H](C[C@@H]2CCNC2=O)C(=O)COC(F)(F)F)n1 [Compound 534, (1S,3aR,6aS)-2-(2-((l-methyl-1H-pyrazol-3-yl)amino)-2-oxoacetyl)-N-((S)-3-oxo-1-((S)-2-oxopyrrolidin-3-yl)-4-(trifluoromethoxy)butan-2-yl)octahydrocyclo-penta[c]pyrrole-1-carboxamide] | 0.05 to 0.2
16 | CC1(CC(=O)N2CC3(CC3)C[C@H]2C(=O)N[C@@H](C[C@@H]2CCNC2=O)C(=O)COC(F)(F)F)CCCC1 [Compound 711, (S)-5-(2-(l-methylcyclopentyl)acetyl)-N-((S)-3-oxo-1-((S)-2-oxopyrrolidin-3-yl)-4-(trifluoromethoxy)butan-2-yl)-5-azaspiro[2.4]heptane-6-carboxamide] | < 0.05
17 | O=C(Nc1cccc(Cl)c1)C(=O)N1CC2(CC2)C[C@H]1C(=O)N[C@@H](C[C@@H]1CCNC1=O)C(=O)COC(F)(F)F [Compound 607, (S)-5-(2-((3-chlorophenyl)amino)-2-oxoacetyl)-N-((S)-3-oxo-1-((S)-2-oxopyrrolidin-3-yl)-4-(trifluoromethoxy)butan-2-yl)-5-azaspiro[2.4]heptane-6-carboxamide] | < 0.05
18 | O=C1NCC[C@H]1C[C@H](NC(=O)[C@@H]1[C@H]2CCC[C@H]2CN1C(=O)c1csc(C(F)(F)F)n1)C(=O)COC(F)(F)F [Compound 476, (1S,3aR,6aS)-N-((S)-3-oxo-1-((S)-2-oxopyrrolidin-3-yl)-4-(trifluoromethoxy)butan-2-yl)-2-(2-(trifluoromethyl)-thiazole-4-carbonyl)-octahydrocyclo-penta[c]pyrrole-1-carboxamide] | < 0.05
19 | O=C1NCC[C@H]1C[C@H](NC(=O)[C@@H]1C[C@@H](c2ccccc2)CN1C(=O)[C@H](O)c1ccccc1)C(=O)COC(F)(F)F [Compound 786, (2S,4S)-1-((R)-2-hydroxy-2-phenylacetyl)-N-((S)-3-oxo-1-((S)-2-oxopyrrolidin-3-yl)-4-(trifluoromethoxy)butan-2-yl)-4-phenylpyrrolidine-2-carboxamide] | 0.05 to 0.2
20 | CC(C)C(F)(F)CC(=O)N1CC2(CC2)C[C@H]1C(=O)N[C@@H](C[C@@H]1CCNC1=O)C(=O)COC(F)(F)F [Compound 712, (S)-5-(3,3-difluoro-4-methylpentanoyl)-N-((S)-3-oxo-1-((S)-2-oxopyrrolidin-3-yl)-4-(trifluoromethoxy)butan-2-yl)-5-azaspiro[2.4]heptane-6-carboxamide] | < 0.05
21 | CC(C)C[C@H](NC(=O)C(=O)NC12CC(C(F)(F)F)(C1)C2)C(=O)N[C@@H](C[C@@H]1CCNC1=O)C(=O)COC(F)(F)F [Compound 596, N1-((S)-4-methyl-1-oxo-1-(((S)-3-oxo-1-((S)-2-oxopyrrolidin-3-yl)-4-(trifluoromethoxy)butan-2-yl)amino)pentan-2-yl)-N2-(3-(trifluoromethyl)bi-cyclo[1.1.1]pentan-1-yl)oxalamide] | < 0.05
22 | CC1(C)CCc2onc(C(=O)N3CC4(CC4)C[C@H]3C(=O)N[C@@H](C[C@@H]3CCNC3=O)C(=O)COC(F)(F)F)c2C1 [Compound 568, (S)-5-(5,5-dimethyl-4,5,6,7-tetrahydro-benzo[d]isoxazole-3-carbonyl)-N-((S)-3-oxo-1-((S)-2-oxopyrrolidin-3-yl)-4-(trifluoromethoxy)butan-2-yl)-5-azaspiro[2.4]-heptane-6-carboxamide] | 0.05 to 0.2

Same assay, conditions: Severe acute respiratory syndrome coronavirus 2, HeLa-ACE2, 24 h; read-out: EC50, uM (Hela)

Row | Structure (SMILES) | EC50 [µM]
23 | CC(C)C[C@H](NC(=O)C(=O)Nc1ccccc1F)C(=O)N[C@@H](Cc1cnc[nH]1)C(=O)COc1c(F)c(F)cc(F)c1F (single isomer, unassigned) [Compound 135, trifluoroacetate] | 0.5 to 1
